Data reported in patent US20210023029A1, “EDASALONEXENT DOSING REGIMEN FOR TREATING MUSCULAR DYSTROPHY” (Catabasis Pharmaceuticals, Inc., priority 2017, published 2021).
Entries after “also recorded” stand apart in the source; their conditions may differ.

Columns and labels:
NF-κB = settings: dog model of DMD; cited from earlier work
mdx mice = settings: cited from earlier work
boys with DMD [1] = assay: MoveDMD trial: NSAA and timed function tests in boys with DMD; format: in vivo, human
Protocol: The MoveDMD trial (see FIG. 10) was designed to evaluate efficacy, safety/tolerability, pharmacokinetics (PK), pharmacodynamics (PD), and dose response of edasalonexent. The first phase portion of the MoveDMD trial was a 1-week study to evaluate the safety, PK, and PD at 33 and 67 mg/kg/day, given in 2 divided doses, and 100 mg/kg/day given in 3 divided doses. The second phase and the open-label extension (OLE) portions of the MoveDMD trial enrolled boys ages 4 through 7 with DMD. Phase 2 was a 12-week placebo-controlled study with two cohorts given 33 mg/kg twice daily (BID; 67 mg/kg/day; n=10) or 33 mg/kg three times daily (TID; 100 mg/kg/day; n=10), and a placebo cohort (n=10). Patients in the OLE continued with either dose regimen of edasalonexent. The North Star Ambulatory Assessment (NSAA) is a validated functional scale specifically designed for ambulant boys with DMD and measures overall function in young boys. […] The 10-meter walk/run, 4-stair climb, and time to stand are all timed tests used as a measure of function in boys with DMD. In each of these tests, as shown in FIGS. 15-17, the average rate of change of speed by study subjects in completing these physical tasks stabilized during the 60 week 100 mg/kg/day edasalonexent treatment period as compared with the rate of change during the off-treatment control period (36 weeks preceding the treatment period). All timed function test values stabilized during the treatment period.

boys with DMD [2] = assay: MoveDMD trial: safety and tolerability; format: in vivo, human
Protocol: The MoveDMD trial (see FIG. 10) was designed to evaluate efficacy, safety/tolerability, pharmacokinetics (PK), pharmacodynamics (PD), and dose response of edasalonexent. The first phase portion of the MoveDMD trial was a 1-week study to evaluate the safety, PK, and PD at 33 and 67 mg/kg/day, given in 2 divided doses, and 100 mg/kg/day given in 3 divided doses. The second phase and the open-label extension (OLE) portions of the MoveDMD trial enrolled boys ages 4 through 7 with DMD. Phase 2 was a 12-week placebo-controlled study with two cohorts given 33 mg/kg twice daily (BID; 67 mg/kg/day; n=10) or 33 mg/kg three times daily (TID; 100 mg/kg/day; n=10), and a placebo cohort (n=10). Patients in the OLE continued with either dose regimen of edasalonexent.

[3] = MoveDMD trial: systemic exposure and Ctrough in DMD patients; format: in vivo, human; settings: for daily exposure level versus level effective in inhibiting NF-κB in the adult study: boys with DMD
Protocol: The MoveDMD trial (see FIG. 10) was designed to evaluate efficacy, safety/tolerability, pharmacokinetics (PK), pharmacodynamics (PD), and dose response of edasalonexent. The first phase portion of the MoveDMD trial was a 1-week study to evaluate the safety, PK, and PD at 33 and 67 mg/kg/day, given in 2 divided doses, and 100 mg/kg/day given in 3 divided doses.
The second phase and the open-label extension (OLE) portions of the MoveDMD trial enrolled boys ages 4 through 7 with DMD. Phase 2 was a 12-week placebo-controlled study with two cohorts given 33 mg/kg twice daily (BID; 67 mg/kg/day; n=10) or 33 mg/kg three times daily (TID; 100 mg/kg/day; n=10), and a placebo cohort (n=10). Patients in the OLE continued with either dose regimen of edasalonexent.
The ratios of all 24 transcripts within a patient were also averaged, and are shown in FIG. 13 using symbols which represent this average from each individual patient. This average was graphed against the average edasalonexent Ctrough values within each dose cohort (shown on the x-axis in ng/ml).

boys with DMD [4] = assay: MoveDMD trial: MRI-T2 and MR spectroscopy fat fraction of leg muscles; format: in vivo, human
Description: The MR transverse relaxation time constant assessed by MRI (MRI-T2; also referred to as bulk T2) is sensitive to several pathophysiological features of disease pathology in DMD, including muscle damage, inflammation, and fat infiltration and provides a method for monitoring disease pathology over a wide age range. Furthermore, the proportion of fat infiltration in the muscle (fat fraction), measured using the gold standard, proton MRS (^1H-MRS), or a 3-point Dixon imaging technique, is associated with disease progression and correlates with performance on functional tests. (Willcocks et al., (2016), ANN. NEUROL., 79(4):535-47; Barnard et al., (2018), PLoS ONE, 13(3):E0194283). These are non-invasive measures of disease progression in DMD that are elevated and increase with age; changes in these measures strongly correlate with changes in function and predict future loss of functional milestones. […] The MRI-T2 value was a composite of 5 lower leg muscles. Stabilization of MRI-T2 values is consistent with the concomitant slowing of DMD disease progression observed through the functional assessments discussed previously.

[5] = 100 mg/kg/day versus 133 mg/kg/day (33/33/67 mg/kg)
[6] = 100 mg/kg/day, 60 weeks, compared to 36 week off-treatment control period
[7] = after 48 weeks receiving 100 mg/kg/day

- daily exposure level versus level effective in inhibiting NF-κB in the adult study ([3]; 67 mg/kg/day (33 mg/kg twice daily)): comparable
- daily exposure level versus level effective in inhibiting NF-κB in the adult study ([3]; 100 mg/kg/day (33 mg/kg three times daily)): comparable
- mean Ctrough level ([3]; 100 mg/kg/day compared to 33 and 67 mg/kg/day, after one week): highest Ctrough level
SMILES: CC/C=C\C/C=C\C/C=C\C/C=C\C/C=C\C/C=C\CCC(=O)NCCNC(=O)c1ccccc1O [edasalonexent, N-(2-[(4Z,7Z,10Z,13Z,16Z,19Z)-docosa-4,7,10,13,16,19-hexaenamido]ethyl)-2-hydroxybenzamide]
- NF-κB activity (binding of p65 subunit to DNA, secretion of TNF-α) (NF-κB): decreases NF-κB activity
- diaphragm function and cumulative run distance (mdx mice; long-term studies on mdx mice (Milne et al. 2014)): improved diaphragm function and increased cumulative run distance
- muscle regeneration, degeneration, inflammation and function (mdx mice; mdx mice (Milne et al. 2014)): enhance muscle regeneration, reduce muscle degeneration and inflammation, and preserve muscle function
- muscle function and DMD disease progression (boys with DMD [1]; 33 mg/kg TID (100 mg/kg/day), 60 weeks, compared to off-treatment control period): clinically meaningful slowing of disease progression; also recorded: preservation of muscle function and slowing of DMD disease progression
- efficacy compared to the 133 mg/kg/day dosing regimen (boys with DMD [1]; [5]): equally effective
- 4-stair climb, average rate of change of speed (boys with DMD [1]; [6]): stabilized
- 10-meter walk/run, average rate of change of speed (boys with DMD [1]; [6]): stabilized
- North Star Ambulatory Assessment (NSAA) score, rate of change (boys with DMD [1]; [6]): stabilized
- time to stand, average rate of change of speed (boys with DMD [1]; [6]): stabilized
- treatment effects (boys with DMD [1]; boys affected by DMD enrolled at age 4-7, MoveDMD phase 2 trial and open-label extension): positive treatment effects
- nature of the majority of adverse events (boys with DMD [2]; 100 mg/kg, study subjects): mild in nature and mostly gastrointestinal
- safety findings (boys with DMD [2]; 100 mg/kg, study subjects): no adverse findings
- tolerability (boys with DMD [2]; 100 mg/kg, study subjects): well tolerated
- trends in hematology, chemistry, renal or adrenal function, calcium or phosphate levels (boys with DMD [2]; 100 mg/kg, study subjects): No adverse trends
- side effects compared to the 133 mg/kg/day dosing regimen (boys with DMD [2]; [5]): fewer side effects
- heart rate (boys with DMD [2]; study subjects over the 60 week study period): decreased toward age normative values
- height and weight (boys with DMD [2]; study subjects over the treatment period, CDC Growth Chart percentiles): age appropriate increases
- annualized rate of change of MRI-T2 values (composite of 5 lower leg muscles) (boys with DMD [4]; 100 mg/kg/day treatment period (60 weeks) versus off-treatment period (36 weeks)): significantly improved
- change in fat fraction, soleus (MR spectroscopy) (boys with DMD [4]; [7]): 0.85%
- change in fat fraction, vastus lateralis (MR spectroscopy) (boys with DMD [4]; [7]): 5.9%
